Tests used:
Format in all cases: cell-based
[1] = test system: uridine uptake in ARN8 cells; test: Tritiated uridine uptake; conditions: 15 min preincubation, 5,6-3H-Uridine 60 sec, FIG. 7
Method: ARN8 cells were incubated with increasing concentrations of nilotinib and tritiated uridine. The amount of tritium label in cells was determined by scintillation counting. 200 000 ARN8 cells/well were seeded on 6-well plates. 24 h post-seeding, the cells were rinsed twice with transport buffer, pH 7.4 (20 mM Tris/HCl, 130 mM NaCl, 3 mM K2HPO4, 1 mM MgCl2, 5 mM Glucose) and then incubated for 15 min at 37° C. with compounds (or vehicle) diluted in transport buffer. 5,6-3H-Uridine (PerkinElmer, #NET367001MC) was added to a final concentration of 4 μCi/mL for 60 sec, and then removed with 5 quick washes with 1 mM ice-cold unlabelled uridine (Sigma, #U3003). Samples (in triplicate) were harvested in 10% SDS (Sigma) and transferred to a flexible 24-well microplate (Perkin Elmer, #1450-402). Optiphase Supermix scintillation buffer (PerkinElmer, #1200-439) was added and the counts per minute measured for 3 min.

[2] = test system: ARN8s wtTP53, melanoma; test: WST-1 assay; conditions: 72 hours
Method: TP53 status in each cell line is indicated. All cells were grown in 10% FBS. p53 wild type or mutant status (wtTP53 or mtTP53) and tumor cell line origin are indicated.

[3] = test system: p21 expression in ARN8 melanoma cells; test: Levels of p53 and downstream targets (hdm2, pig3, p21) with nutlin-3; conditions: 1 h then 2 μM nutlin-3 for 18 h, FIG. 4
Method: Levels of p53 and downstream targets hdm2, pig3 (band indicated by arrow) and p21 were determined. Levels of gapdh were used to monitor protein loading. Pig3 is a known pro-apoptotic protein.

[4] = test system: ARN8 melanoma cells; test: Sulforhodamine B assay of cancer cell growth and/or viability; conditions: ARN8; 2 μM; 72 hours; absence of excess uridine
Method: ARN8 melanoma cells are seeded at a density of 500 cells per well of a 96 well plate. Following 24 hours of incubation, cells are treated with increasing concentrations of the compound of Example 8 in the absence or presence of excess uridine (100 micromolar). Cells are incubated for 72 hours after which the growth medium is removed from the cells and replaced by […] of 1× sterile PBS and 50 μL of 40% trichloroacetic acid in dH2O. Samples are incubated at 4° C. for 1 h to fix the cells. The plate is then washed with 3 changes of water with all liquid allowed to drain from the plate. […] of 0.1% sulforhodamine B in 1% acetic acid in H2O is added to each well and incubated for 30 minutes. Excess dye is washed out with three changes of 1% acetic acid in H2O with all liquid allowed to drain from the plate. The remaining dye is solubilized in 100 microliters of 10 mM un-buffered basic Tris per well and absorbance read at 570 nm.

[5] = test system: p53 synthesis in ARN8 melanoma cells; test: p53 synthesis, 35S-Met pulse labelling and p53 immunoprecipitation; conditions: 5 h treatment, 35S-Met 30 minutes, FIG. 3
Method: Incorporation of 35S-Met in the p53 immunoprecipitate was determined by autoradiography. This experiment was performed in duplicate (Exp. 1 and Exp. 2).

[6] = test system: K562 mtTP53, leukemia; test: WST-1 assay; conditions: 72 hours
Method: (§1) Adherent cell lines were cultured overnight prior to the addition of the compound of Example 1, whereas non-adherent cell lines were treated immediately after seeding. TP53 status in each cell line is indicated. All cells were grown in 10% FBS. p53 wild type or mutant status (wtTP53 or mtTP53) and tumor cell line origin are indicated. The results obtained are shown below and in FIG. 10.

[7] = test system: RKO wtTP53, colon cancer; test: WST-1 assay; conditions: 72 hours
Method: as §1

[8] = test system: MV4-11 wtTP53, leukemia; test: WST-1 assay; conditions: 72 hours
Method: as §1

[9] = test system: U2OS wtTP53, sarcoma; test: WST-1 assay; conditions: 72 hours
Method: as §1

[10] = test system: HCT116 wtTP53, colon cancer; test: WST-1 assay; conditions: 72 hours
Method: as §1

[11] = test system: A431 mtTP53, skin cancer; test: WST-1 assay; conditions: 72 hours
Method: as §1

[12] = test system: JVM2 wtTP53, lymphoma; test: WST-1 assay; conditions: 72 hours
Method: as §1

[13] = test system: NB4 mtTP53, leukemia; test: WST-1 assay; conditions: 72 hours
Method: as §1

[14] = test system: A375 wtTP53, melanoma; test: WST-1 assay; conditions: 72 hours
Method: as §1

[15] = test system: L428 mtTP53, lymphoma; test: WST-1 assay; conditions: 72 hours
Method: as §1

[16] = test system: Ramos mtTP53, lymphoma; test: WST-1 assay; conditions: 72 hours
Method: as §1

[17] = test system: HT29 mtTP53, colon cancer; test: WST-1 assay; conditions: 72 hours
Method: as §1

Cc1cn(-c2cc(NC(=O)c3ccc(C)c(Nc4nccc(-c5cccnc5)n4)c3)cc(C(F)(F)F)c2)cn1 [nilotinib]
uridine uptake [1]: blocks uridine uptake

O=C(NC1CCCc2c1cnn2-c1ccccc1F)c1ccccn1 (stereo not shown) [Example 1, N-(1-(2-Fluorophenyl)-4,5,6,7-tetrahydro-1H-indazol-4-yl)picolinamide]
metabolically active cells, percentage relative to the vehicle (DMSO) control ([2]; 1.23 μM): 68.69%
metabolically active cells, percentage relative to the vehicle (DMSO) control ([2]; 3.70 μM): 40.86%
metabolically active cells, percentage relative to the vehicle (DMSO) control ([2]; 11.11 μM): 35.13%
nutlin-3 induced p21 expression [3]: Loss of nutlin-3 induced p21 expression
viability at 2 µM [4]: 53%
p53 synthesis [5]: increases p53 synthesis
metabolically active cells, percentage relative to the vehicle (DMSO) control ([6]; 1.23 μM): 63.91%
metabolically active cells, percentage relative to the vehicle (DMSO) control ([6]; 3.70 μM): 57.69%
metabolically active cells, percentage relative to the vehicle (DMSO) control ([6]; 11.11 μM): 55.28%
metabolically active cells, percentage relative to the vehicle (DMSO) control ([6]; 33.30 μM): 53.35%
metabolically active cells, percentage relative to the vehicle (DMSO) control ([7]; 1.23 μM): 83.37%
metabolically active cells, percentage relative to the vehicle (DMSO) control ([7]; 3.70 μM): 42.62%
metabolically active cells, percentage relative to the vehicle (DMSO) control ([7]; 11.11 μM): 36.36%
metabolically active cells, percentage relative to the vehicle (DMSO) control ([7]; 33.30 μM): 29.16%
metabolically active cells, percentage relative to the vehicle (DMSO) control ([8]; 1.23 μM): 60.26%
metabolically active cells, percentage relative to the vehicle (DMSO) control ([8]; 3.70 μM): 36.85%
metabolically active cells, percentage relative to the vehicle (DMSO) control ([8]; 11.11 μM): 19.73%
metabolically active cells, percentage relative to the vehicle (DMSO) control ([8]; 33.30 μM): 15.79%
metabolically active cells, percentage relative to the vehicle (DMSO) control ([9]; 1.23 μM): 98.88%
metabolically active cells, percentage relative to the vehicle (DMSO) control ([9]; 3.70 μM): 70.03%
metabolically active cells, percentage relative to the vehicle (DMSO) control ([9]; 11.11 μM): 51.63%
metabolically active cells, percentage relative to the vehicle (DMSO) control ([9]; 33.30 μM): 50.16%
metabolically active cells, percentage relative to the vehicle (DMSO) control ([10]; 1.23 μM): 75.69%
metabolically active cells, percentage relative to the vehicle (DMSO) control ([10]; 3.70 μM): 50.13%
metabolically active cells, percentage relative to the vehicle (DMSO) control ([10]; 11.11 μM): 28.40%
metabolically active cells, percentage relative to the vehicle (DMSO) control ([10]; 33.30 μM): 14.51%
metabolically active cells, percentage relative to the vehicle (DMSO) control ([11]; 1.23 μM): 76.99%
metabolically active cells, percentage relative to the vehicle (DMSO) control ([11]; 3.70 μM): 52.31%
metabolically active cells, percentage relative to the vehicle (DMSO) control ([11]; 11.11 μM): 36.84%
metabolically active cells, percentage relative to the vehicle (DMSO) control ([11]; 33.30 μM): 27.93%
metabolically active cells, percentage relative to the vehicle (DMSO) control ([12]; 1.23 μM): 86.30%
metabolically active cells, percentage relative to the vehicle (DMSO) control ([12]; 3.70 μM): 75.36%
metabolically active cells, percentage relative to the vehicle (DMSO) control ([12]; 11.11 μM): 44.68%
metabolically active cells, percentage relative to the vehicle (DMSO) control ([12]; 33.30 μM): 38.31%
metabolically active cells, percentage relative to the vehicle (DMSO) control ([13]; 1.23 μM): 79.47%
metabolically active cells, percentage relative to the vehicle (DMSO) control ([13]; 3.70 μM): 65.73%
metabolically active cells, percentage relative to the vehicle (DMSO) control ([13]; 11.11 μM): 42.77%
metabolically active cells, percentage relative to the vehicle (DMSO) control ([13]; 33.30 μM): 36.19%
metabolically active cells, percentage relative to the vehicle (DMSO) control ([14]; 1.23 μM): 85.95%
metabolically active cells, percentage relative to the vehicle (DMSO) control ([14]; 3.70 μM): 50.62%
metabolically active cells, percentage relative to the vehicle (DMSO) control ([14]; 11.11 μM): 45.86%
metabolically active cells, percentage relative to the vehicle (DMSO) control ([14]; 33.30 μM): 32.67%
metabolically active cells, percentage relative to the vehicle (DMSO) control ([15]; 1.23 μM): 67.78%
metabolically active cells, percentage relative to the vehicle (DMSO) control ([15]; 3.70 μM): 33.84%
metabolically active cells, percentage relative to the vehicle (DMSO) control ([15]; 11.11 μM): 32.76%
metabolically active cells, percentage relative to the vehicle (DMSO) control ([15]; 33.30 μM): 34.80%
metabolically active cells, percentage relative to the vehicle (DMSO) control ([16]; 1.23 μM): 87.94%
metabolically active cells, percentage relative to the vehicle (DMSO) control ([16]; 3.70 μM): 54.16%
metabolically active cells, percentage relative to the vehicle (DMSO) control ([16]; 11.11 μM): 42.35%
metabolically active cells, percentage relative to the vehicle (DMSO) control ([16]; 33.30 μM): 40.94%
metabolically active cells, percentage relative to the vehicle (DMSO) control ([17]; 1.23 μM): 70.23%
metabolically active cells, percentage relative to the vehicle (DMSO) control ([17]; 3.70 μM): 23.19%
metabolically active cells, percentage relative to the vehicle (DMSO) control ([17]; 11.11 μM): 25.66%
metabolically active cells, percentage relative to the vehicle (DMSO) control ([17]; 33.30 μM): 12.11%

From patent US10889564B2, “Tetrahydroindazoles and medical uses thereof” (Genase Therapeutics B.V., priority 2015, dated 2021)
